Assay results: patent US10428076B2, “Soluble guanylate cyclase stimulators” (Merck Sharp & Dohme Corp., priority 2015, dated 2019)

Biological target: human recombinant sGC enzyme (Homo sapiens (Human), UniProt Q02108+Q02153)
Test: Size Exclusion Chromatography (SEC) competition binding assay using [3H] Ex-77B as the radioligand
Conditions: [3H] Ex-77B radioligand, 24 hours at 37° C., 300 μM DETA/NO
Method: Binding Assay: The binding potencies of sGC compounds to the human recombinant sGC enzyme were determined in a Size Exclusion Chromatography (SEC) competition binding assay using [^3H] Ex-77B as the radioligand. [^3H] […] The parent (non-labeled) molecule was first iodinated then a Pd-catalyzed iodine to tritium exchange provided the labeled compound. […] Assays were conducted in 96-well plates in a total volume of 200 μL. […] Non-specific binding was defined by competition with 1 μM of Ex-77B. After the incubation period, the binding mixtures were loaded onto the gel-filtration plate (ThermoFischer Cat. No. 89808) pre-equilibrated with binding buffer and spun at 1000×g for 3 min at 4° C. on a Bench top centrifuge. The collected eluates in White Frame Clear Well Isoplates (Perkin Elmer Cat #6005040) received 100 μl of UltimaGold scintillation cocktail. The sealed plates were shaken vigorously and span, and counted after 6 hours with a Wallac Microbeta TriLux 1450 LSC & Luminescence Counter (Perkin Elmer).

Ki [nM]	Compound
12.2	CC(C)(Cc1csc(C2(C3CC3)C(=O)Nc3nc(-c4nn(CCCC(F)(F)F)c5ncc(F)cc45)nc(N)c32)n1)C(=O)O (stereo not drawn) [Example 96B, 3-(2-{4-amino-5-cyclopropyl-2-[5-fluoro-1-(4,4,4-trifluorobutyl)-1H-pyrazolo[3,4-b]pyridin-3-yl]-6-oxo-6,7-dihydro-5H-pyrrolo[2,3-d]pyrimidin-5-yl}thiazol-4-yl)-2,2-dimethylpropanoic acid]

Biological target: sGC α1/β1 heterodimer stably expressed in CHO-K1 cells (CHO-K1/sGC) (Homo sapiens (Human), UniProt Q02108+Q02153)
Test: Cell-based sGC functional assay (Cyclic GMP Assay for sGC Activator: CASA assay)
Conditions: CHO-K1, activity expressed as a percentage of compound A (standard), read-out: % Activation
Text: Cell-based sGC Functional Assay (Cyclic GMP Assay for sGC Activator: CASA Assay)
Soluble guanylate cyclase (sGC) is a heme-containing enzyme that converts GTP to secondary messenger cGMP. Increases in cGMP levels affect several physiological processes including vasorelaxation through multiple downstream pathways. […] Heme-dependent activators (HDAs) preferentially activate sGC containing a ferrous heme group. To determine the effect of sGC activators on enzyme activity, the CASA assay was developed to monitor the generation of cGMP in a cell line that stably expresses the heterodimeric sGC protein.
Methods: A CHO-K1 cell line stably expressing the sGC α1/β1 heterodimer was generated using a standard transfection protocol. CHO-K1 cells were transfected with plasmids pIREShyghsGCα1 and pIRESneo-hsGCβ1 simultaneously using FUGENE reagent. Clones that stably express both subunits were selected with hygromycin and neomycin for ˜2 weeks. Clone #7 was chosen for the assay and was designated CHO-K1/sGC. CHO-K1/sGC cells were maintained in F-K12 medium containing 10% heat-inactivated Fetal Bovine Serum (FBS), 100 μg/mL penicillin/streptomycin, 0.5 mg/mL hygromycin and 0.25 mg/mL G418. The cells were then cryopreserved in LN2. On the day of the assay, the cells were thawed and resuspended in EBSS Assay Buffer (Sigma, E3024) supplemented with 5 mM MgCl2, 10 mM HEPES (4-(2-hydroxyethyl)piperazine-1-ethanesulfonic acid) and 0.05% BSA (bovine serum albumin) (EAB) and cell density was then adjusted to 2.25×10^5/mL with EAB. IBMX (3-isobutyl-1-methylxanthin, 0.5 mM) was added to inhibit degradation of cGMP. Compounds were diluted from DMSO stock solutions and added to the assay at a final DMSO concentration of 2.5%. Cells were pre-incubated in the presence and absence of 1 μM of Diethylenetriamine/nitric oxide adduct (DETA-NO; Sigma, 17018) for 30 min at 25° C. Compounds are subsequently added and incubated for 1 hr at 37° C. At the end of the incubation period, the reaction was terminated and the cells were lysed with the detection reagents from Cisbio Kits. The level of intracellular cGMP was determined using an HTRF-based assay kit (CisBio, 62GM2PEC), which detects the displacement of a fluorescence labeled cGMP from its specific antibody. The cGMP produced by test compounds was directly compared to the maximum cGMP production (this value was set to equal 100% activation.) of the published sGC-HDA compound A:
[drawing 491] (Example 1 in WO 2010/065275, published Jun. 10, 2010). The test compounds' activity were then expressed as a percentage of compound A, the standard in every experiment. This percent activation was calculated either in the presence or absence of DETA-NO which was then plotted. Inflection points (IP) and maximum fold induction was derived using Abase analysis software for 4P fit.

Compound	Emax [%]
CC(C)(Cc1csc(C2(C3CC3)C(=O)Nc3nc(-c4nn(CCCC(F)(F)F)c5ncc(F)cc45)nc(N)c32)n1)C(=O)O (stereo not drawn) [Example 96B, 3-(2-{4-amino-5-cyclopropyl-2-[5-fluoro-1-(4,4,4-trifluorobutyl)-1H-pyrazolo[3,4-b]pyridin-3-yl]-6-oxo-6,7-dihydro-5H-pyrrolo[2,3-d]pyrimidin-5-yl}thiazol-4-yl)-2,2-dimethylpropanoic acid]	54
CC1(c2nn(C(C)(C)C(=O)O)c(=O)o2)C(=O)Nc2nc(-c3nn(CCC(F)(F)C(F)(F)F)c4cc(Cl)ccc34)nc(N)c21 (single isomer, unassigned) [Example 99B, 2-[5-{4-Amino-2-[6-chloro-1-(3,3,4,4,4-pentafluorobutyl)-1H-indazol-3-yl]-5-methyl-6-oxo-6,7-dihydro-5H-pyrrolo[2,3-d]pyrimidin-5-yl}-2-oxo-1,3,4-oxadiazol-3(2H)-yl]-2-methylpropanoic acid]	110
CC(C)(Cc1coc(C2(C)C(=O)Nc3nc(-c4nn(CC5CCCCO5)c5ccccc45)nc(N)c32)n1)C(=O)O (single isomer, unassigned) [Example 230AA, 3-{2-[4-amino-5-methyl-6-oxo-2-{1-[tetrahydro-2H-pyran-2-ylmethyl]-1H-indazol-3-yl}-6,7-dihydro-5H-pyrrolo[2,3-d]pyrimidin-5-yl]-1,3-oxazol-4-yl}-2,2-dimethylpropanoic acid]	99.1
CC1CCC(Cn2nc(-c3nc(N)c4c(n3)NC(=O)C4(C)c3nc(CC(C)(C)C(=O)O)co3)c3ccc(F)cc32)CC1 (racemic) [Example 137AA, 3-{2-[4-amino-2-{6-fluoro-1-[4-methylcyclohexylmethyl]-1H-indazol-3-yl}-5-methyl-6-oxo-6,7-dihydro-5H-pyrrolo[2,3-d]pyrimidin-5-yl]-1,3-oxazol-4-yl}-2,2-dimethylpropanoic acid]	92.1
CC1(c2cccc(-c3nn[nH]n3)c2)C(=O)Nc2nc(-c3nn(CCC(F)(F)C(F)(F)F)c4ncccc34)nc(N)c21 (single isomer, unassigned) [Example 252B, 4-amino-5-methyl-2-[1-(3,3,4,4,4-pentafluorobutyl)-1H-pyrazolo[3,4-b]pyridin-3-yl]-5-[3-(2H-tetrazol-5-yl)phenyl]-5,7-dihydro-6H-pyrrolo[2,3-d]pyrimidin-6-one]	87.6

Now from value to molecule:

Emax [%]	Compound
98.2	CC1(c2ccc(CCS(=O)(=O)O)cc2)C(=O)Nc2nc(-c3nn(Cc4ccccc4F)c4cc(Cl)ccc34)nc(N)c21 (single isomer, unassigned) [Example 258B, 2-(4-{4-Amino-2-[6-chloro-1-(2-fluorobenzyl)-1H-indazol-3-yl]-5-methyl-6-oxo-6,7-dihydro-5H-pyrrolo[2,3-d]pyrimidin-5-yl}phenyl)ethanesulfonic acid]
96.7	CC1(c2cccc(-c3nn[nH]n3)n2)C(=O)Nc2nc(-c3nn(Cc4ccccc4F)c4cc(Cl)ccc34)nc(N)c21 (single isomer, unassigned) [Example 253A, 5-[6-(2H-tetrazol-5-yl)pyridin-2-yl]-4-amino-2-[6-chloro-1-(2-fluorobenzyl)-1H-indazol-3-yl]-5-methyl-5,7-dihydro-6H-pyrrolo[2,3-d]pynmidin-6-one]
99	CC(C)(Cn1cc(C2(C)C(=O)Nc3nc(-c4nn(Cc5ccccc5F)c5cc(Cl)ccc45)nc(N)c32)nn1)C(=O)O (single isomer, unassigned) [Example 140A, 3-(4-{4-Amino-2-[6-chloro-1-(2-fluorobenzyl)-1H-indazol-3-yl]-5-methyl-6-oxo-6,7-dihydro-5H-pyrrolo[2,3-d]pyrimidin-5-yl}-1H-1,2,3-triazol-1-yl)-2,2-dimethylpropanoic acid]
98.7	CC1(c2cn(C(C)(C)C(=O)O)nn2)C(=O)Nc2nc(-c3nn(Cc4ccccc4F)c4cc(Cl)ccc34)nc(N)c21 (single isomer, unassigned) [Example 141A, 2-(4-{4-Amino-2-[6-chloro-1-(2-fluorobenzyl)-1H-indazol-3-yl]-5-methyl-6-oxo-6,7-dihydro-5H-pyrrolo[2,3-d]pyrimidin-5-yl}-1H-1,2,3-triazol-1-yl)-2-methylpropanoic acid]
113	CC1(N2CCC(CCC(=O)O)C2)C(=O)Nc2nc(-c3nn(Cc4ccccc4F)c4cc(Cl)ccc34)nc(N)c21 (single isomer, unassigned) [Example 261C, 3-[1-{4-Amino-2-[6-chloro-1-(2-fluorobenzyl)-1H-indazol-3-yl]-5-methyl-6-oxo-6,7-dihydro-5H-pyrrolo[2,3-d]pyrimidin-5-yl}pyrrolidin-3-yl]propanoic acid]
95.3	CC1(c2ccc(CCc3nn[nH]n3)cn2)C(=O)Nc2nc(-c3nn(Cc4ccccc4F)c4ccccc34)nc(N)c21 (single isomer, unassigned) [Example 246A, 5-{5-[2-(2H-tetrazol-5-yl)ethyl]pyridin-2-yl}-4-amino-2-[1-(2-fluorobenzyl)-1H-indazol-3-yl]-5-methyl-5,7-dihydro-6H-pyrrolo[2,3-d]pyrimidin-6-one]
86.9	CC1(c2ccc(CCc3nn[nH]n3)cn2)C(=O)Nc2nc(-c3nn(Cc4ccccc4F)c4cc(Cl)ccc34)nc(N)c21 (single isomer, unassigned) [Example 247A, 5-{5-[2-(2H-tetrazol-5-yl)ethyl]pyridin-2-yl}-4-amino-2-[6-chloro-1-(2-fluorobenzyl)-1H-indazol-3-yl]-5-methyl-5,7-dihydro-6H-pyrrolo[2,3-d]pyrimidin-6-one]

Same assay, conditions: activity expressed as a percentage of compound A (standard)

Compound	% Activation [%]
C[C@@]1(c2ccc(CCc3noc(=O)[nH]3)cc2)C(=O)Nc2nc(-c3nn(Cc4ccccc4F)c4cc(Cl)ccc34)nc(N)c21 [Example 256B, (S)-4-Amino-2-[6-chloro-1-(2-fluorobenzyl)-1H-indazol-3-yl]-5-methyl-5-{4-[2-(5-oxo-4,5-dihydro-1,2,4-oxadiazol-3-yl)ethyl]phenyl}-5,7-dihydro-6H-pyrrolo[2,3-d]pyrimidin-6-one]	104.4

Same assay, conditions: inflection point (IP) from 4P fit of percent activation

EC50 [nM]	Compound
311	CC(C)(Cc1csc(C2(C3CC3)C(=O)Nc3nc(-c4nn(CCCC(F)(F)F)c5ncc(F)cc45)nc(N)c32)n1)C(=O)O (stereo not drawn) [Example 96B, 3-(2-{4-amino-5-cyclopropyl-2-[5-fluoro-1-(4,4,4-trifluorobutyl)-1H-pyrazolo[3,4-b]pyridin-3-yl]-6-oxo-6,7-dihydro-5H-pyrrolo[2,3-d]pyrimidin-5-yl}thiazol-4-yl)-2,2-dimethylpropanoic acid]
